Measurements reported in ChEMBL document CHEMBL4177704, “Synthesis and biological evaluation of water-soluble derivatives of chiral gossypol as HIV fusion inhibitors targeting gp41” (Bioorg Med Chem Lett, 2018).
Values joined by “and” are separate entries in the source; they are usually repeats but may differ in a detail not shown here. Identical values can stand only once.

Key:
[1] = Selectivity index, ratio of CC50 for human TZM-bl cells to IC50 for HIV-1 3B infected in human TZM-bl cells; format: toxicity, cell-based
[2] = test system: Human immunodeficiency virus 1; experiment: Antiviral activity against X4R5 tropic HIV-1 93TH051 expressing Env subtype E infected in human PBMC assessed as reduction in p24 expression levels after 4 days by ELISA; format: functional, organism-based; conditions: Human immunodeficiency virus 1, 93TH051, PBMC, 96 h
[3] = biological target: Envelope glycoprotein gp160 (Human immunodeficiency virus 1, UniProt Q6QLK5); experiment: Inhibition of HIV gp41 6-helix bundle formation preincubated with C34 and N36 for 30 mins
[4] = Spermicidal activity against mouse sperm assessed as motility of sperm at 100 uM after 1 hr by hemocytometric analysis; format: ADME
[5] = test system: TZM; experiment: Cytotoxicity against human TZM-bl cells after 72 hrs by MTT assay; format: cell-based; conditions: tzm, 72 h
[6] = test system: Human immunodeficiency virus 1; experiment: Antiviral activity against HIV-1 3B infected in human TZM-bl cells treated for 2 hrs followed by compound washout measured after 2 days by luciferase reporter assay; format: functional, organism-based

Sequence of Envelope glycoprotein gp160 (Q6QLK5 whole entry): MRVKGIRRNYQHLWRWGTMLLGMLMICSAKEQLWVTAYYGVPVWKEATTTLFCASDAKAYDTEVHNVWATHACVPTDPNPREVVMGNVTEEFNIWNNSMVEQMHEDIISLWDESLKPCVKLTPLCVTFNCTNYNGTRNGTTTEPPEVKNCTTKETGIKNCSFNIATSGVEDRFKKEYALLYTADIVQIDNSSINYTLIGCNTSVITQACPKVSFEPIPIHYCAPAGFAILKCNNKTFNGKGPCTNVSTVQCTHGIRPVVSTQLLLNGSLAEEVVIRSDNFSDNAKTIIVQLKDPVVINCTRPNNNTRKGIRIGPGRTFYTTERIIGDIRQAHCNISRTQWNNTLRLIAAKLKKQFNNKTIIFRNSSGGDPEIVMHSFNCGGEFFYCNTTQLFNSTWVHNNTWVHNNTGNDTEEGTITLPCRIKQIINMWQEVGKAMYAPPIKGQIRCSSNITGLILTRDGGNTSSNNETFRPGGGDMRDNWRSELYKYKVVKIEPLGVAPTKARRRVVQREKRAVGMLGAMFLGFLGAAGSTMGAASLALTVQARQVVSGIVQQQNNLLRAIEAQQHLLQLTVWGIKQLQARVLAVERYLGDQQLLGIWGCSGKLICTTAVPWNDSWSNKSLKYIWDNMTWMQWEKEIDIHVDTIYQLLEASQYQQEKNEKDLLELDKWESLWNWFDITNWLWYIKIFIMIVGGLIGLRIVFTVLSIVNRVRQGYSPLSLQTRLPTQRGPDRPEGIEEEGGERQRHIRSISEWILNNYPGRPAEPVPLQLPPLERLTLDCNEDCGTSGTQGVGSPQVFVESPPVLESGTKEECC

For `Cc1cc2c(c(O)c1-c1c(C)cc3c(c1O)/C(=C/NC(C)S(=O)(=O)[O-])C(=O)C(O)=C3C(C)C)/C(=C/NC(C)S(=O)(=O)[O-])C(=O)C(O)=C2C(C)C.[Na+].[Na+]` (single isomer, unassigned; (-)), the selectivity ratio ([1]; TZM-bl cells, read-out: Ratio CC50/IC50) was 32.3, the IC50 [2] was 1560 nM and the IC50 [3] was 7.34 µM. The Activity [4] was “Non-Toxic”, the CC50 [5] was 37.8 µM and the IC50 [6] was 1170 nM.
For `Cc1cc2c(c(O)c1-c1c(C)cc3c(c1O)/C(=C/NC(C)C(=O)NC(C)C(=O)[O-])C(=O)C(O)=C3C(C)C)/C(=C/NC(C)C(=O)NC(C)C(=O)[O-])C(=O)C(O)=C2C(C)C.[Na+].[Na+]` (single isomer, unassigned; (-)), the “Ratio CC50/IC50” value [1] was 24.99, the IC50 [2] was 1720 nM and the IC50 [3] was 7.87 µM. The Activity [4] was “Non-Toxic”, the CC50 [5] was 35.7 µM and the IC50 [6] was 1430 nM.
With `Cc1cc2c(C(C)C)c(O)c(O)c(C=O)c2c(O)c1-c1c(C)cc2c(C(C)C)c(O)c(O)c(C=O)c2c1O` [GOSSYPOL] the Activity [4] was “Toxic” and the CC50 [5] was 18.1 µM and 5.22 µM.
With `Cc1cc2c(c(O)c1-c1c(C)cc3c(c1O)/C(=C/N[C@@H]1[C@@H](O)[C@H](O)[C@@H](CO)O[C@H]1O)C(=O)C(O)=C3C(C)C)/C(=C/N[C@@H]1[C@@H](O)[C@H](O)[C@@H](CO)O[C@H]1O)C(=O)C(O)=C2C(C)C` (stereo in doubt; (-)-1a) the “Ratio CC50/IC50” value [1] was 32.12, the IC50 [2] was 1220 nM and the IC50 [3] was 6.36 µM. For the same compound, the Activity [4] was “Non-Toxic”, the CC50 [5] was 23.1 µM and the IC50 [6] was 720 nM.
